Like-named read-outs stand apart in the source and are kept apart here.
Key:
DENV1 = experiment: CPE-based antiviral assay (resazurin), DENV1 in BHK-21; type: cell-based, Dengue virus 1; conditions: Dengue virus, DENV1, BHK-21, 120 h, read-out: EC50 against DENV1
DENV2 [1] = experiment: CPE-based antiviral assay (resazurin), DENV2 in BHK-21; type: cell-based, Dengue virus 2; conditions: Dengue virus, DENV2, BHK-21, 96 h, read-out: EC50 against DENV2
DENV3 = experiment: CPE-based antiviral assay (resazurin), DENV3 in BHK-21; type: cell-based, Dengue virus 3; conditions: Dengue virus, DENV3, BHK-21, 120 h, read-out: EC50 against DENV3
DENV4 = experiment: CPE-based antiviral assay (resazurin), DENV4 in BHK-21; type: cell-based, Dengue virus 4; conditions: Dengue virus, DENV4, BHK-21, 120 h, read-out: EC50 against DENV4
ZIKV = experiment: CPE-based antiviral assay (MTT), ZIKV in BHK-21; type: cell-based; conditions: Zika virus, BHK-21, 72 h, read-out: EC50 against ZIKV
YFV = experiment: microbe, parasite or virus in culture; type: cell-based; conditions: Yellow fever virus, BHK-21, 72 h, read-out: EC50 against YFV
JEV = experiment: CPE-based antiviral assay (MTT), JEV in BHK-21; type: cell-based; conditions: Japanese encephalitis virus, BHK-21, 72 h, read-out: EC50 against JEV
WNV = experiment: CPE-based antiviral assay (MTT), WNV in BHK-21; type: cell-based; conditions: West Nile virus, BHK-21, 72 h, read-out: EC50 against WNV
DENV2 [2] = experiment: MTT assay, DENV2-infected BHK-21 cells; type: cell-based, Dengue virus 2; conditions: Dengue virus
[3] = Cytotoxicity assay in BHK-21 cells; type: cell-based, Hamster; conditions: hamster
BHK-21 cells = experiment: Cytotoxicity assay in BHK-21 cells; type: cell-based, Hamster; conditions: concentrations up to 20 μM
[4] = Cytotoxicity against MRC5 cells; type: cell-based, Human; conditions: human
Protocol: (§1) The MTT (3-[4,5-dimethyl-2-thiazolyl]-2,5-diphenyl-2H-tetrazolium bromide) and resazurin reduction assays were carried out as previously described ([Nobori et al., 2018]; [Sanaki et al., 2019]). These were performed to calculate cell viability following viral induced CPE or cytotoxicity. Assay conditions for flaviviruses are as described in Table 2.

MRC5 cells = experiment: Cytotoxicity against MRC5 cells; type: cell-based, Human; conditions: for CC50: rescreening (Table 3), read-out: CC50
Protocol: as §1

SARS-CoV-2 = experiment: qRT-PCR analysis of SARS-CoV-2 in Caco-2 cells (rescreening, supernatant viral RNA); type: cell-based; conditions: qRT-PCR analysis using Caco-2 cells, MOI 0.1, 48 h
HCoV-OC43 = experiment: Resazurin reduction assay, HCoV-OC43-infected MRC5 cells
HCoV-229E = experiment: Resazurin reduction assay, HCoV-229E-infected MRC5 cells
[5] = rescreening (Table 3), read-out: CC50
[6] = Severe acute respiratory syndrome coronavirus 2
[7] = Betacoronavirus 1, OC43, MRC5, read-out: HCoV-OC43 EC50
[8] = MRC5 cells, resazurin reduction assay
[9] = Human coronavirus 229E, MRC5, read-out: HCoV-229E EC50
[10] = read-out: HCoV-OC43 EC50, MRC5 cells, resazurin reduction assay, rescreening of nine tubercidin derivatives
[11] = read-out: HCoV-229E EC50, MRC5 cells, resazurin reduction assay, rescreening of nine tubercidin derivatives

Structure (SMILES) | EC50 (DENV2 [2]) [nM] | CC50 [3] [nM] | cytotoxicity (in words) (BHK-21 cells) | CC50 [4, 5] [nM] | EC90 (SARS-CoV-2; [6]) [nM] | EC50 (HCoV-OC43; [7]) [nM] | anti-HCoV-OC43 activity (in words) (HCoV-OC43; [8]) | EC50 (HCoV-229E; [9]) [nM] | anti-HCoV-229E activity (in words) (HCoV-229E; [8]) | other results
NC(=O)c1nc(F)c[nH]c1=O [Favipiravir] |  |  |  |  |  |  |  |  |  | EC50 (DENV1): 17 µM; EC50 (DENV2 [1]): 4.4 µM; EC50 (DENV3): 13 µM; EC50 (DENV4): 5.2 µM; EC50 (ZIKV): 40 µM; EC50 (YFV): 57 µM; EC50 (JEV): 80 µM; EC50 (WNV): > 100 µM
Nc1ncnc2c1c(/C=N\O)cn2[C@@H]1O[C@H](CO)[C@@H](O)[C@H]1O [HUP1069, 5-formyltuberucidin oxime] | < 125 | 180 | high cytotoxicity | 740 | 200 | 55 | strong antiviral activities | < 78 | strong antiviral activities | cytotoxicity (in words) (MRC5 cells): high cytotoxicity
Nc1c2ccn([C@@H]3O[C@H](CO)[C@@H](O)[C@H]3O)c2nc[n+]1[O-] [HUP1077, 3-tubercidin N-oxide] | 950 | > 20000 | did not exhibit cytotoxicity | 24000 | 3500 | 4300 | strong antiviral activities | 4000 | strong antiviral activities | 
Nc1ncnc2c1c([N+](=O)[O-])cn2[C@@H]1O[C@H](CO)[C@@H](O)[C@H]1O [HUP1078] |  |  |  |  |  |  |  |  |  | CC50 (MRC5 cells): 330 nM; EC90 (SARS-CoV-2): 100 nM; EC50 (HCoV-OC43; [10]): > 10000 nM; EC50 (HCoV-229E; [11]): 2000 nM
N#Cc1cn([C@@H]2O[C@H](CO)[C@@H](O)[C@H]2O)c2ncnc(N)c12 [HUP1109] |  |  |  |  |  |  |  |  |  | CC50 (MRC5 cells): 590 nM; EC90 (SARS-CoV-2): 200 nM; EC50 (HCoV-OC43; [10]): > 10000 nM; EC50 (HCoV-229E; [11]): 2300 nM
Nc1ncnc2c1ccn2[C@@H]1O[C@H](CO)[C@@H](O)[C@H]1O [HUP1136, tubercidin] | < 125 | 340 | high cytotoxicity | 660 | 87 | 110 | strong antiviral activities | < 78 | strong antiviral activities | cytotoxicity (in words) (MRC5 cells): high cytotoxicity
CCC(CC)COC(=O)[C@H](C)N[P@](=O)(OC[C@H]1O[C@@](C#N)(c2ccc3c(N)ncnn23)[C@H](O)[C@@H]1O)Oc1ccccc1 [Remdesivir, reference compound] |  |  |  |  |  |  |  |  |  | CC50 ([4]; mean from three independent experiments (Table 4), read-out: CC50 MRC5, mean): > 50000 nM; EC50 (HCoV-OC43; Betacoronavirus 1, OC43, MRC5, read-out: HCoV-OC43 EC50, mean): 229 nM; EC50 (HCoV-229E; Human coronavirus 229E, MRC5, read-out: HCoV-229E EC50, mean): 71 nM
NC(=O)c1ncn([C@@H]2O[C@H](CO)[C@@H](O)[C@H]2O)n1 [Ribavirin] | 28000 | > 400000 |  |  |  |  |  |  |  | EC50 (DENV1): 62 µM; EC50 (DENV2 [1]): 19 µM; EC50 (DENV3): 54 µM; EC50 (DENV4): 86 µM; EC50 (ZIKV): 31 µM; EC50 (YFV): 34 µM; EC50 (JEV): 33 µM; EC50 (WNV): 52 µM

Source: publication PMC8433052 (iScience, 2021)
